Patent publication US6077822A, “Drug salts” (Dumex-Alpharma A/S, priority 1993, dated 2000)

Key:
[1] = cited from earlier work
[2] = increased gastric pH; cited from earlier work
[3] = dissolution, paddle method USP XXII apparatus II; assay type: physicochemical; conditions: 900 ml 0.1 N HCl; tablet with 150 mg salt; 5-60 minutes; FIG. 1
Protocol: The paddle method is used in accordance with USP XXII, p. 1579, (apparatus II), with 900 ml 0.1 N HCl. […] Samples are taken after 5, 10, 20, 30 and 60 minutes and diluted.
The samples are analyzed spectrophotometrically at 345.9 nm in a Shimadzu 160 A photometer.

Row | Compound | patients spontaneously reporting nausea and vomiting ([1]; 24/373 patients) [%] | patients reporting nausea and vomiting after questioning ([1]; 35/113 patients) [%] | frequency of nausea and vomiting relative to other antibiotics ([1]; in vivo) [fold] | effect of increased pH of the stomach on bioavailability / dissociation and absorption [2] | release versus time compared with Vibramycin [3]
1 | CCO.C[C@H]1c2cccc(O)c2C(=O)C2=C(O)[C@]3(O)C(=O)C(C(N)=O)=C(O)[C@@H](N(C)C)[C@@H]3[C@@H](O)[C@@H]21.C[C@H]1c2cccc(O)c2C(=O)C2=C(O)[C@]3(O)C(=O)C(C(N)=O)=C(O)[C@@H](N(C)C)[C@@H]3[C@@H](O)[C@@H]21.Cl.Cl.O [doxycyclin hyclate, doxycyclin hydrochloride (hyclate)] | 6.4 | 31 | 3 | independent of pH | 
2 | C[C@H]1c2cccc(O)c2C(=O)C2=C(O)[C@]3(O)C(=O)C(C(N)=O)=C(O)[C@@H](N(C)C)[C@@H]3[C@@H](O)[C@@H]21.O [doxycyclin monohydrate] |  |  |  | decreases the bioavailability | 
3 | Doxycyclin Sucrose-octa-O-sulphonic Acid Salt [Example 2] |  |  |  |  | delayed release characteristics are similar
